Legend:
OVCAR-4 = test: SRB growth screen, ovarian cancer OVCAR-4; details: Homo sapiens, OVCAR-4, 48 h
RXF-393 = test: SRB growth screen, renal cancer RXF-393; details: Homo sapiens, RXF 393, 48 h
T-47D = test: SRB growth screen, breast cancer T-47D; details: Homo sapiens, T47D, 48 h
KM12 = test: SRB growth screen, colon cancer KM12; details: Homo sapiens, KM12, 48 h, read-out: Log10 GI50 (converted)
TK-10 = test: SRB growth screen, renal cancer TK-10; details: Homo sapiens, TK-10, 48 h
LOX-IMVI = test: SRB growth screen, melanoma LOX-IMVI; details: Homo sapiens, 48 h
OVCAR-8 = test: SRB growth screen, ovarian cancer OVCAR-8; details: Homo sapiens, OVCAR-8, 48 h
HCT-116 = test: SRB growth screen, colon cancer HCT-116; details: Homo sapiens, HCT-116, 48 h
MOLT-4 = test: SRB growth screen, leukemia MOLT-4; details: Homo sapiens, MOLT-4, 48 h
UO-31 = test: SRB growth screen, renal cancer UO-31; details: Homo sapiens, UO-31, 48 h
HCT-15 = test: SRB growth screen, colon cancer HCT-15; details: Homo sapiens, HCT-15, 48 h
NCI-H460 = details: Homo sapiens, NCI-H460, 48 h
PC-3 = test: SRB growth screen, prostate cancer PC-3; details: Homo sapiens, PC-3, 48 h
UACC-257 = test: SRB growth screen, melanoma UACC-257; details: Homo sapiens, UACC-257, 48 h
HCC-2998 = test: SRB growth screen, colon cancer HCC-2998; details: Homo sapiens, HCC 2998, 48 h
U251 = test: SRB growth screen, CNS cancer U251; details: Homo sapiens, U-251, 48 h
MDA-MB-231/ATCC = test: SRB growth screen, breast cancer MDA-MB-231/ATCC; details: Homo sapiens, MDA-MB-231, 48 h
UACC-62 = test: SRB growth screen, melanoma UACC-62; details: Homo sapiens, UACC-62, 48 h
DU-145 = test: SRB growth screen, prostate cancer DU-145; details: Homo sapiens, DU-145, 48 h
SN12C = test: SRB growth screen, renal cancer SN12C; details: Homo sapiens, 48 h
786-0 = test: SRB growth screen, renal cancer 786-0; details: Homo sapiens, 786-0, 48 h
A498 = test: SRB growth screen, renal cancer A498; details: Homo sapiens, A498, 48 h
NCI-H522 = details: Homo sapiens, NCI-H522, 48 h
COLO 205 = test: SRB growth screen, colon cancer COLO 205; details: Homo sapiens, COLO 205, 48 h
[1] = read-out: Log10 GI50 (converted)
[2] = read-out: Log10 LC50 (converted)

For CC(=O)O[C@H]1C(=O)[C@@]2(C)[C@H]([C@H](OC(=O)c3ccccc3)[C@]3(O)C[C@H](OC(=O)[C@H](O)[C@@H](NC(=O)C4(C)OC4C)c4ccccc4)C(C)=C1C3(C)C)[C@]1(OC(C)=O)CO[C@@H]1C[C@@H]2O (stereo partly shown) [Ceph-epoxide, cephalomannine epoxide], which GI50 (OVCAR-4; [1]) is on record?
The GI50 was 3.89 µM.

What about the CC50 (OVCAR-4; [2]) of the same molecule?
Its CC50 is greater than 100 µM.

And the IC (TGI) (OVCAR-4; read-out: Log10 TGI)?
Its IC (TGI) is greater than 100 µM.

And the GI50 (RXF-393; [1])?
The GI50 was 0.214 µM.

What about the CC50 (RXF-393; [2]) of the same molecule?
Its CC50 is greater than 100 µM.

And the IC (TGI) (RXF-393; read-out: Log10 TGI)?
Its IC (TGI) is greater than 100 µM.

What about the GI50 (T-47D; [1]) of the same molecule?
The GI50 was 15.5 µM.

What about the CC50 (T-47D; [2]) of the same molecule?
Its CC50 is greater than 100 µM.

What about the IC (TGI) (T-47D; read-out: Log10 TGI) of the same molecule?
Its IC (TGI) is greater than 100 µM.

What about the GI50 (KM12) of the same molecule?
Its GI50 is less than 0.01 µM.

And the GI50 (TK-10; [1])?
Its GI50 is 0.0646 µM.

And the CC50 (TK-10; [2])?
The CC50 was greater than 100 µM.

And the IC (TGI) (TK-10; read-out: Log10 TGI)?
The IC (TGI) was greater than 100 µM.

And the GI50 (LOX-IMVI; [1])?
Its GI50 is less than 0.01 µM.

And the CC50 (LOX-IMVI; [2])?
The CC50 was greater than 100 µM.

And the IC (TGI) (LOX-IMVI; read-out: Log10 TGI)?
Its IC (TGI) is 21.4 µM.

And the CC50 (OVCAR-8; [2])?
The CC50 was greater than 100 µM.

What about the IC (TGI) (OVCAR-8; read-out: Log10 TGI) of the same molecule?
Its IC (TGI) is greater than 100 µM.

What about the GI50 (HCT-116; [1]) of the same molecule?
The GI50 was less than 0.01 µM.

And the CC50 (HCT-116; [2])?
Its CC50 is greater than 100 µM.

And the GI50 (MOLT-4; [1])?
Its GI50 is less than 0.01 µM.

What about the CC50 (MOLT-4; [2]) of the same molecule?
Its CC50 is greater than 100 µM.

What about the IC (TGI) (MOLT-4; read-out: Log10 TGI) of the same molecule?
The IC (TGI) was greater than 100 µM.

And the GI50 (UO-31; [1])?
The GI50 was 2 µM.

What about the CC50 (UO-31; [2]) of the same molecule?
The CC50 was greater than 100 µM.

What about the IC (TGI) (UO-31; read-out: Log10 TGI) of the same molecule?
The IC (TGI) was greater than 100 µM.

And the GI50 (HCT-15; [1])?
The GI50 was 0.603 µM.

And the CC50 (HCT-15; [2])?
Its CC50 is greater than 100 µM.

And the IC (TGI) (HCT-15; read-out: Log10 TGI)?
Its IC (TGI) is greater than 100 µM.

What about the GI50 (NCI-H460; [1]) of the same molecule?
Its GI50 is less than 0.01 µM.

What about the CC50 (NCI-H460; [2]) of the same molecule?
Its CC50 is greater than 100 µM.

What about the IC (TGI) (NCI-H460; read-out: Log10 TGI) of the same molecule?
The IC (TGI) was greater than 100 µM.

And the GI50 (PC-3; [1])?
The GI50 was 0.0112 µM.

And the CC50 (PC-3; [2])?
Its CC50 is greater than 100 µM.

And the IC (TGI) (PC-3; read-out: Log10 TGI)?
Its IC (TGI) is greater than 100 µM.

And the GI50 (UACC-257; [1])?
Its GI50 is 0.0209 µM.

And the CC50 (UACC-257; [2])?
Its CC50 is greater than 100 µM.

And the IC (TGI) (UACC-257; read-out: Log10 TGI)?
The IC (TGI) was greater than 100 µM.

And the GI50 (HCC-2998; [1])?
The GI50 was less than 0.01 µM.

What about the CC50 (HCC-2998; [2]) of the same molecule?
The CC50 was greater than 100 µM.

What about the IC (TGI) (HCC-2998; read-out: Log10 TGI) of the same molecule?
Its IC (TGI) is 0.0457 µM.

What about the GI50 (U251; [1]) of the same molecule?
The GI50 was less than 0.01 µM.

What about the CC50 (U251; [2]) of the same molecule?
Its CC50 is greater than 100 µM.

And the GI50 (MDA-MB-231/ATCC; [1])?
The GI50 was 0.0182 µM.

What about the CC50 (MDA-MB-231/ATCC; [2]) of the same molecule?
Its CC50 is greater than 100 µM.

What about the GI50 (UACC-62; [1]) of the same molecule?
The GI50 was less than 0.01 µM.

What about the CC50 (UACC-62; [2]) of the same molecule?
Its CC50 is greater than 100 µM.

And the IC (TGI) (UACC-62; read-out: Log10 TGI)?
Its IC (TGI) is greater than 100 µM.

What about the GI50 (DU-145; [1]) of the same molecule?
The GI50 was 0.0263 µM.

And the CC50 (DU-145; [2])?
The CC50 was greater than 100 µM.

And the IC (TGI) (DU-145; read-out: Log10 TGI)?
The IC (TGI) was 0.145 µM.

What about the GI50 (SN12C; [1]) of the same molecule?
Its GI50 is less than 0.01 µM.

And the CC50 (SN12C; [2])?
The CC50 was greater than 100 µM.

And the IC (TGI) (SN12C; read-out: Log10 TGI)?
The IC (TGI) was greater than 100 µM.

And the CC50 (786-0; [2])?
Its CC50 is greater than 100 µM.

What about the IC (TGI) (786-0; read-out: Log10 TGI) of the same molecule?
Its IC (TGI) is greater than 100 µM.

And the GI50 (A498; [1])?
Its GI50 is 0.316 µM.

And the CC50 (A498; [2])?
Its CC50 is greater than 100 µM.

What about the IC (TGI) (A498; read-out: Log10 TGI) of the same molecule?
The IC (TGI) was greater than 100 µM.

What about the GI50 (NCI-H522; [1]) of the same molecule?
The GI50 was less than 0.01 µM.

And the IC (TGI) (NCI-H522; read-out: Log10 TGI)?
Its IC (TGI) is 0.0331 µM.

What about the GI50 (COLO 205; [1]) of the same molecule?
The GI50 was less than 0.01 µM.

What about the CC50 (COLO 205; [2]) of the same molecule?
Its CC50 is 0.603 µM.

What about the IC (TGI) (COLO 205; read-out: Log10 TGI) of the same molecule?
Its IC (TGI) is 0.0269 µM.

— patent US5892063A (Hauser, Inc., priority 1997, dated 1999)
